Assays:
Assay type in all cases: functional
Escherichia coli [1] = experiment: Antimicrobial activity against extended-spectrum beta-lactamase-positive Escherichia coli obtained from patient with complicated intra-abdominal infection assessed as percent susceptible isolates by agar dilution method in presence of beta-lactamase inhibitor Sulbactam
Klebsiella oxytoca = experiment: Antimicrobial activity against extended-spectrum beta-lactamase-positive Klebsiella oxytoca assessed as percent susceptible isolates by agar dilution method in presence of beta-lactamase inhibitor Sulbactam
Escherichia coli [2] = experiment: Antimicrobial activity against extended-Spectrum beta-lactamase-negative Escherichia coli obtained from patient with complicated intra-abdominal infection assessed as percent susceptible isolates by agar dilution method in presence of beta-lactamase inhibitor Sulbactam
Klebsiella pneumoniae [3] = experiment: Antimicrobial activity against extended-spectrum beta-lactamase-negative Klebsiella pneumoniae assessed as percent susceptible isolates by agar dilution method in presence of beta-lactamase inhibitor Sulbactam
Pseudomonas fluorescens = experiment: Antimicrobial activity against Pseudomonas fluorescens assessed as percent susceptible isolates by agar dilution method in presence of beta-lactamase inhibitor Sulbactam
Klebsiella aerogenes = experiment: Antimicrobial activity against Enterobacter aerogenes obtained from patient with complicated intra-abdominal infection assessed as percent susceptible isolates by agar dilution method in presence of beta-lactamase inhibitor Sulbactam
[4] = tested on: Stenotrophomonas maltophilia; experiment: Antimicrobial activity against Stenotrophomonas maltophilia assessed as percent susceptible isolates by agar dilution method in presence of beta-lactamase inhibitor Sulbactam
Acinetobacter sp. = experiment: Antimicrobial activity against Acinetobacter sp. assessed as percent susceptible isolates by agar dilution method in presence of beta-lactamase inhibitor Sulbactam
Pasteurella sp. = experiment: Antimicrobial activity against Pasteurella sp. assessed as percent susceptible isolates by agar dilution method in presence of beta-lactamase inhibitor Sulbactam
Serratia marcescens = experiment: Antimicrobial activity against Serratia marcescens assessed as percent susceptible isolates by agar dilution method in presence of beta-lactamase inhibitor Sulbactam
Citrobacter freundii = experiment: Antimicrobial activity against Citrobacter freundii obtained from patient with complicated intra-abdominal infection assessed as percent susceptible isolates by agar dilution method in presence of beta-lactamase inhibitor Sulbactam
Escherichia coli [5] = experiment: Antimicrobial activity against Escherichia coli obtained from patient with complicated intra-abdominal infection assessed as percent susceptible isolates by agar dilution method in presence of beta-lactamase inhibitor Sulbactam
Klebsiella pneumoniae [6] = experiment: Antimicrobial activity against Klebsiella pneumoniae assessed as percent susceptible isolates by agar dilution method in presence of beta-lactamase inhibitor Sulbactam
Enterobacter cloacae = experiment: Antimicrobial activity against Enterobacter cloacae obtained from patient with complicated intra-abdominal infection assessed as percent susceptible isolates by agar dilution method in presence of beta-lactamase inhibitor Sulbactam
Proteus mirabilis = experiment: Antimicrobial activity against extended-spectrum beta-lactamase-positive Proteus mirabilis assessed as percent susceptible isolates by agar dilution method in presence of beta-lactamase inhibitor Sulbactam
Klebsiella pneumoniae [7] = experiment: Antimicrobial activity against extended-spectrum beta-lactamase-positive Klebsiella pneumoniae assessed as percent susceptible isolates by agar dilution method in presence of beta-lactamase inhibitor Sulbactam

CC1(C)S[C@@H]2[C@H](NC(=O)[C@H](N)c3ccccc3)C(=O)N2[C@H]1C(=O)O [AMPICILLIN]
Activity (Escherichia coli [1]): 24% | Activity (Klebsiella oxytoca): 57% | Activity (Escherichia coli [2]): 64% | Activity (Klebsiella pneumoniae [3]): 83% | Activity (Pseudomonas fluorescens): 46% | Activity (Klebsiella aerogenes): 21% | Activity [4]: 46% | Activity (Acinetobacter sp.): 46% | Activity (Pasteurella sp.): 46% | Activity (Serratia marcescens): 13% | Activity (Citrobacter freundii): 61% | Activity (Escherichia coli [5]): 62% | Activity (Klebsiella pneumoniae [6]): 69% | Activity (Enterobacter cloacae): 17% | Activity (Proteus mirabilis): 97% | Activity (Klebsiella pneumoniae [7]): 3%
